Target: HIV-1 protease (Human immunodeficiency virus type 1 group M subtype B, UniProt P04585)
Experiment: Inhibition constants against HIV-1 protease (method of Pennington et al.)
Assay type: biochemical
Conditions: HIV-1 protease; read-out: Ki value
Description: We measured the inhibition constants of the compounds listed in Table VII against HIV-1 protease using the above-cited method of Pennington et al.

`C=CCOC(=O)N[C@@H](Cc1ccccc1)[C@H](O)CN(CC1CCCC1)S(=O)(=O)c1ccc(F)cc1` [Compound 114, N-((3-Allyloxycarbonylamino)-(2 syn,3S)-2-hydroxy-4-phenyl-butyl)-N-cyclopentylmethyl-4-fluoro-benzenesulfonamide] showed a Ki of 0.35 nM.

`COc1ccc(S(=O)(=O)N(CC(C)C)C[C@@H](O)[C@H](Cc2ccccc2)NC(=O)OCc2cccnc2)cc1` [Compound 153] gave a Ki of 0.2 nM.

`CC(C)CN(C[C@@H](O)[C@H](Cc1ccccc1)NC(=O)O[C@H]1CCOC1)S(=O)(=O)N1CCOCC1` [Compound 161] showed a Ki of 20 nM.

Work on `C=CCOC(=O)N[C@@H](Cc1ccccc1)[C@H](O)CN(CC(C)C)S(=O)(=O)c1ccc(NC(C)=O)cc1` [Compound 27] yielded a Ki of 8 nM.

Compound `CCCOC(=O)N[C@@H](Cc1ccccc1)[C@H](O)CN(CC(C)C)S(=O)(=O)c1ccc(Cl)c(Cl)c1` [Compound 89] has a Ki of 2 nM.

`C=CCOC(=O)N[C@@H](Cc1ccccc1)[C@H](O)CN(CC1CCCC1)S(=O)(=O)c1ccc(NC(C)=O)cc1` [Compound 146, N-(4-((3-(Allyloxycarbonylamino)-(2 syn,3S)-2-hydroxy-4-phenyl-butyl)-cyclopentylmethylsulfamoyl)-phenyl)-acetamide] showed a Ki of 2 nM.

With `C=C(C)COC(=O)N[C@@H](Cc1ccccc1)[C@H](O)CN(CC(C)C)S(=O)(=O)c1ccc(Cl)c(Cl)c1` [Compound 106] the Ki was 1.4 nM.

Compound `C=CCOC(=O)N[C@@H](Cc1ccccc1)[C@H](O)CN(CC(C)C)S(=O)(=O)c1ccc(Cl)c(Cl)c1` [Compound 81] has a Ki of 2.3 nM.

For `O=C(N[C@@H](Cc1ccccc1)[C@H](O)CN(Cc1ccco1)S(=O)(=O)c1ccc(F)cc1)O[C@H]1CCOC1` [Compound 136], the Ki was 18 nM.

Work on `CC(C)CN(C[C@@H](O)[C@H](Cc1ccccc1)NC(=O)OCc1ccccc1)S(=O)(=O)c1ccc(N)c([N+](=O)[O-])c1` [Compound 63] yielded a Ki of 7 nM.

In the case of `COc1ccc(S(=O)(=O)N(C[C@@H](O)[C@H](Cc2ccccc2)NC(=O)O[C@H]2CCOC2)C2CCNCC2)cc1` [Compound 1011], the Ki is reported as 1500 nM.

`CC(=O)Nc1ccc(S(=O)(=O)N(CC(C)C)C[C@@H](O)[C@H](Cc2ccccc2)NC(=O)CCC(N)=O)cc1` [Compound 42] was tested, and the Ki was 46 nM.

`CC(=O)Nc1ccc(S(=O)(=O)N(CC(C)C)C[C@@H](O)[C@H](Cc2ccccc2)NC(=O)OC(C)C)cc1` [Compound 29] showed a Ki of 17 nM.

`CC(=O)Nc1ccc(COC(=O)N[C@@H](Cc2ccccc2)[C@H](O)CN(CC(C)C)S(=O)(=O)c2ccc(NC(C)=O)cc2)cc1` [Compound 96] gave a Ki of 8 nM.

For `O=C(N[C@@H](Cc1ccccc1)[C@H](O)CN(CC1CCCC1)S(=O)(=O)c1ccc(Cl)cc1)OCc1cccnc1` [Compound 118], the Ki was under 0.1 nM.

`CC(=O)Nc1ccc(S(=O)(=O)N(CC2CCCC2)C[C@@H](O)[C@H](Cc2ccccc2)NC(=O)OCc2cccnc2)cc1` [Compound 147, N-(4-(Cyclopentylmethyl-((2 syn,3S)-2-hydroxy-4-phenyl-3-(pyridin-3-yl-methoxycarbonylamino)-butyl)-sulfamoyl)-phenyl)-acetamide] showed a Ki of 1.6 nM.

`C=C(C)COC(=O)N[C@@H](Cc1ccccc1)[C@H](O)CN(CC(C)C)S(=O)(=O)c1ccc(F)cc1` [Compound 107] showed a Ki of 1.4 nM.

With `Nc1ccc(S(=O)(=O)N(CC2CCCC2)C[C@@H](O)[C@H](Cc2ccccc2)NC(=O)O[C@H]2CCOC2)c(N)c1` [Compound 173, 2,4-Diamino-N-cyclopentylmethyl-N-((2 syn,3S)-2-hydroxy-4-phenyl-3-((S)-tetrahydrofuran-3-yloxycarbonylamino)-butyl)-benzenesulfonamide] the Ki was 0.6 nM.

`CC(=O)Nc1cc(S(=O)(=O)N(CC(C)C)C[C@@H](O)[C@H](Cc2ccccc2)NC(=O)O[C@H]2CCOC2)ccc1F` [Compound 88, N-(2-Fluoro-5-(((2 syn,3S)-2-hydroxy-4-phenyl-3-((S)-tetrahydrofuran-3-yloxycarbonylamino)-butyl)-isobutyl-sulfamoyl)-phenyl)-acetamide] showed a Ki of 1.4 nM.

Compound `NC(=O)C[C@H](NC(=O)c1ccc2ccccc2n1)C(=O)N[C@@H](Cc1ccccc1)[C@H](O)CN(Cc1ccccc1)S(=O)(=O)c1cccc(C(F)(F)F)c1` [Compound 4] has a Ki of 19 nM.

With `COC(=O)N[C@@H](Cc1ccccc1)[C@H](O)CN(CC(C)C)S(=O)(=O)c1ccc(F)cc1` [Compound 104] the Ki was 5.5 nM.

`C=C(C)CN(C[C@@H](O)[C@H](Cc1ccccc1)NC(=O)O[C@H]1CCOC1)S(=O)(=O)c1ccc(F)cc1` [Compound 135] was tested, and the Ki was 2.7 nM.

With `CC(=O)Nc1cc(S(=O)(=O)N[C@@H](Cc2ccccc2)[C@H](O)CN(CC(C)C)S(=O)(=O)c2ccc(F)c(NC(C)=O)c2)ccc1F` [Compound 70] the Ki was 25 nM.

Compound `CC(C)CN(C[C@@H](O)[C@H](Cc1ccccc1)NC(=O)OCc1ccccc1)S(=O)(=O)c1ccc2nonc2c1` [Compound 65] has a Ki of 0.7 nM.

`CC(=O)Nc1ccc(S(=O)(=O)N(CC(C)C)C[C@@H](O)[C@H](Cc2ccccc2)NC(=O)O[C@@H]2CCOC2)cc1` [Compound 94, N-(4-(((syn)-2-Hydroxy-(S)-4-phenyl-3-((tetrahydro-furan-(R)-3-yl)-oxycarbonylamino)-butyl)-isobutyl-sulfamoyl)-phenyl)-acetamide] was tested, and the Ki was 1.7 nM.

`C=CCOC(=O)N[C@@H](Cc1ccccc1)[C@H](O)CN(CC(C)C)S(=O)(=O)c1ccc(F)cc1` [Compound 122] was tested, and the Ki was 1.2 nM.

For `CC(C)CN(C[C@@H](O)[C@H](Cc1ccccc1)NC(=O)O[C@H]1CCOC1)S(=O)(=O)c1ccc(OCc2ccccc2)cc1` [Compound 174], the Ki was 10 nM.

In the case of `CC(=O)Nc1cccc(S(=O)(=O)N(CC(C)C)C[C@@H](O)[C@H](Cc2ccccc2)NC(=O)O[C@H]2CCOC2)c1` [Compound 91, N-(3-(((2 syn,3S)-2-Hydroxy-4-phenyl-3-((S)-tetrahydrofuran-3-yloxycarbonylamino)-butyl)-isobutyl-sulfamoyl)-phenyl)-acetamide], the Ki is reported as 2.5 nM.

`CC(=O)Nc1ccc(S(=O)(=O)N(CC(C)C)C[C@@H](O)[C@H](Cc2ccccc2)NC(=O)C[C@H]2CNC(=O)C2)cc1` [Compound 1002] was tested, and the Ki was 28 nM.

In the case of `CC(C)CN(C[C@@H](O)[C@H](Cc1ccccc1)NC(=O)OC[C@@H]1COC(=O)N1)S(=O)(=O)c1ccc(F)cc1` [Compound 109, 4-Fluoro-N-(2-(syn)-hydroxy-3-((2-oxazolidon-(S)-4-yl)-methoxycarbonylamino)-4-(S)-phenyl-butyl)-N-isobutyl-benzenesulfonamide], the Ki is reported as 6 nM.

Compound `CC(C)CN(C[C@@H](O)[C@H](Cc1ccccc1)NC(=O)O[C@H]1CCOC1)S(=O)(=O)c1ccc2nonc2c1` [Compound 66] has a Ki of 0.4 nM.

In the case of `COC(=O)N[C@@H](Cc1ccccc1)[C@H](O)CN(CC(C)C)S(=O)(=O)c1ccc(NC(C)=O)cc1` [Compound 102], the Ki is reported as 33 nM.

`COc1ccc(COC(=O)N[C@@H](Cc2ccccc2)[C@H](O)CN(CC2CCCC2)S(=O)(=O)c2ccc(OC)cc2)cc1` [Compound 177] was tested, and the Ki was under 0.1 nM.

Work on `CC(=O)Nc1ccc(S(=O)(=O)N(CC(C)C)C[C@@H](O)[C@H](Cc2ccccc2)NC(=O)O[C@H]2CCOC2)cc1` [Compound 48, N-(4-(((2 syn,3S)-2-Hydroxy-4-phenyl-3-((S)-tetrahydrofuran-3-yloxycarbonylamino)-butyl)-isobutyl-sulfamoyl)-phenyl)-acetamide] yielded a Ki of 1.4 nM.

With `CC(C)CN(C[C@@H](O)[C@H](Cc1ccccc1)NC(=O)OCc1cccnc1)S(=O)(=O)c1ccc2nonc2c1` [Compound 82] the Ki was 1.5 nM.

Source: patent US20080293727A1, “Novel sulfonamide inhibitors of aspartyl protease” (priority 1992, published 2008)
